Residues, ends and D or L forms follow the SMILES beside them.
What follows are molecules tested against IL-17RA/IL17RC dimerization induced by IL-17A (Homo sapiens, UniProt Q16552) (assay: IL-17RA/IL17RC dimerization assay in response to IL-17A (PathHunter Cytokine Receptor Assay)). Details: IL-17A at EC80; read-out: IC50 in IL-17RA/IL7RC dimerization assay.
Assay type: cell-based
Description: The peptides of Table 7 were tested for their ability to inhibit the binding of IL-17A to its receptor and the subsequent interaction of IL-17RA and IL17RC.
Interleukin receptor RA and RC dimerization assay (DiscoverX) was used to measure the interaction of the receptor chains IL-17RA and IL17RC upon activation by IL-17A in the absence or presence of the peptides of Table 7.
In the PathHunter® Cytokine Receptor Assay, one cytokine receptor chain is tagged with a small peptide epitope ProLink (PK) and the other chain is tagged with Enzyme Acceptor (EA). Ligand binding induces dimerization of the two receptors, facilitating complementation of PK and EA fragments. This interaction generates an active unit of b-galactosidase, which is detected using a chemiluminescent substrate. PathHunter cell lines were expanded from freezer stocks according to standard procedures. Cells were seeded in a total volume of 20 μL into white walled, 384-well microplates and incubated for the appropriate time prior to testing. For agonist activity inhibition, cells were incubated with sample to induce response. Intermediate dilution of sample stocks was performed to generate 5× sample in assay buffer. 5 μL of 5× sample was added to cells and incubated at 37° C. or room temperature for 60 minutes. Vehicle concentration was 1%. 5 μL of 6×EC80 agonist (IL-17A) in assay buffer was added to the cells and incubated at 37° C. for 6 to 16 hours depending on the assay. 1. […] For some assays, activity was detected using a high sensitivity detection reagent (PathHunter Flash Kit) to improve assay performance. In these assays, an equal volume of detection reagent (25 or 30 uL) was added to the wells, followed by a one hour incubation at room temperature. Microplates were read following signal generation with a PerkinElmer Envision™ instrument for chemiluminescent signal detection. Compound activity was analyzed using CBIS data analysis suite (ChemInnovation, CA). % Inhibition=100%×(1−(mean RLU of test sample−mean RLU of vehicle control)/(mean RLU of EC80 control−mean RLU of vehicle control)).

IL-17RA/IL17RC dimerization induced by IL-17A, sequence (Q16552 24-155): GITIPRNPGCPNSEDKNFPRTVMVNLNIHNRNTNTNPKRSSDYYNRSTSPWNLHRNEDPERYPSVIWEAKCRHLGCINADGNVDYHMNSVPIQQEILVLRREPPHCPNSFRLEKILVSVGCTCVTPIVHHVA

SMILES | IC50
CC(=O)N[C@H](C(=O)N[C@@H](Cc1c[nH]cn1)C(=O)N[C@@H](Cc1ccccc1)C(=O)N[C@H](C(=O)N[C@@H](Cc1ccccc1)C(=O)N1CCC[C@H]1C(=O)N[C@@H](CCC(N)=O)C(=O)N[C@@H](CC(=O)O)C(=O)N[C@@H](CC(C)C)C(=O)N[C@@H](Cc1c[nH]c2ccccc12)C(=O)N[C@@H](CCC(=O)O)C(=O)N[C@@H](Cc1c[nH]c2ccccc12)C(=O)N[C@@H](Cc1ccccc1)C(=O)N[C@@H](CCCNC(=N)N)C(=O)N[C@@H](CCCNC(=N)N)C(N)=O)[C@@H](C)O)C(C)C [SEQ ID NO: 129] (Ac-VHFTFPQDLWEWFRR-NH2) | < 500 nM
CC(=O)N[C@H](C(=O)N[C@@H](Cc1c[nH]cn1)C(=O)N[C@@H](Cc1ccccc1)C(=O)N[C@@H](CCC(N)=O)C(=O)N[C@@H](Cc1ccccc1)C(=O)N1CCC[C@H]1C(=O)N[C@@H](C)C(=O)N[C@@H](CC(=O)O)C(=O)N[C@@H](CC(C)C)C(=O)N[C@@H](Cc1c[nH]c2ccccc12)C(=O)N[C@@H](CCC(=O)O)C(=O)N[C@@H](Cc1c[nH]c2ccccc12)C(=O)N[C@H](C(=O)N[C@@H](CCCNC(=N)N)C(=O)N[C@@H](CCCNC(=N)N)C(N)=O)C(C)C)C(C)C [SEQ ID NO: 130] (Ac-VHFQFPADLWEWVRR-NH2) | < 500 nM
CC(=O)N[C@H](C(=O)N[C@@H](Cc1c[nH]cn1)C(=O)N[C@@H](Cc1ccccc1)C(=O)N[C@@H](CCC(N)=O)C(=O)N[C@@H](Cc1ccccc1)C(=O)N1CCC[C@H]1C(=O)N[C@@H](C)C(=O)N[C@@H](CC(=O)O)C(=O)N[C@@H](Cc1ccccc1)C(=O)N[C@@H](Cc1c[nH]c2ccccc12)C(=O)N[C@@H](CCC(=O)O)C(=O)N[C@@H](Cc1c[nH]c2ccccc12)C(=O)N[C@H](C(=O)N[C@@H](CCCNC(=N)N)C(=O)N[C@@H](CCCNC(=N)N)C(N)=O)C(C)C)C(C)C [SEQ ID NO: 131] (Ac-VHFQFPADFWEWVRR-NH2) | < 500 nM
CC(=O)N[C@H](C(=O)N[C@@H](Cc1c[nH]cn1)C(=O)N[C@@H](Cc1ccccc1)C(=O)N[C@@H](CCC(N)=O)C(=O)N[C@@H](Cc1ccccc1)C(=O)N1CCC[C@H]1C(=O)N[C@@H](C)C(=O)N[C@@H](CC(=O)O)C(=O)N[C@@H](CC(C)C)C(=O)N[C@@H](Cc1ccc(O)cc1)C(=O)N[C@@H](CCC(=O)O)C(=O)N[C@@H](Cc1c[nH]c2ccccc12)C(=O)N[C@H](C(=O)N[C@@H](CCCNC(=N)N)C(=O)N[C@@H](CCCNC(=N)N)C(N)=O)C(C)C)C(C)C [SEQ ID NO: 132] (Ac-VHFQFPADLYEWVRR-NH2) | < 500 nM
CC(=O)N[C@H](C(=O)N[C@@H](Cc1c[nH]cn1)C(=O)N[C@@H](Cc1ccccc1)C(=O)N[C@@H](CCC(N)=O)C(=O)N[C@@H](Cc1ccccc1)C(=O)N1CCC[C@H]1C(=O)N[C@@H](C)C(=O)N[C@@H](CC(=O)O)C(=O)N[C@@H](CC(C)C)C(=O)N[C@@H](Cc1c[nH]c2ccccc12)C(=O)N[C@@H](CC(N)=O)C(=O)N[C@@H](Cc1c[nH]c2ccccc12)C(=O)N[C@H](C(=O)N[C@@H](CCCNC(=N)N)C(=O)N[C@@H](CCCNC(=N)N)C(N)=O)C(C)C)C(C)C [SEQ ID NO: 133] (Ac-VHFQFPADLWNWVRR-NH2) | < 500 nM
CC(=O)N[C@H](C(=O)N[C@@H](Cc1c[nH]cn1)C(=O)N[C@@H](Cc1ccccc1)C(=O)N[C@@H](CCC(N)=O)C(=O)N[C@@H](Cc1ccccc1)C(=O)N1CCC[C@H]1C(=O)N[C@@H](C)C(=O)N[C@@H](CC(=O)O)C(=O)N[C@@H](CC(C)C)C(=O)N[C@@H](Cc1c[nH]c2ccccc12)C(=O)N[C@@H](CCC(=O)O)C(=O)N[C@@H](Cc1ccccc1)C(=O)N[C@H](C(=O)N[C@@H](CCCNC(=N)N)C(=O)N[C@@H](CCCNC(=N)N)C(N)=O)C(C)C)C(C)C [SEQ ID NO: 134] (Ac-VHFQFPADLWEFVRR-NH2) | < 500 nM
CC(=O)N[C@H](C(=O)N[C@@H](Cc1c[nH]cn1)C(=O)N[C@@H](Cc1ccccc1)C(=O)N[C@@H](CCC(N)=O)C(=O)N[C@@H](Cc1ccccc1)C(=O)N1CCC[C@H]1C(=O)N[C@@H](C)C(=O)N[C@@H](CC(=O)O)C(=O)N[C@@H](CC(C)C)C(=O)N[C@@H](Cc1c[nH]c2ccccc12)C(=O)N[C@@H](CCC(=O)O)C(=O)N[C@@H](Cc1c[nH]c2ccccc12)C(=O)N[C@@H](Cc1ccccc1)C(=O)N[C@@H](CCCNC(=N)N)C(=O)N[C@@H](CCCNC(=N)N)C(N)=O)C(C)C [SEQ ID NO: 135] (Ac-VHFQFPADLWEWFRR-NH2) | < 500 nM
CC(=O)N[C@H](C(=O)N[C@@H](Cc1c[nH]cn1)C(=O)N[C@@H](Cc1ccccc1)C(=O)N[C@@H](CCC(N)=O)C(=O)N[C@@H](Cc1ccccc1)C(=O)N1CCC[C@H]1C(=O)N[C@@H](CCC(N)=O)C(=O)N[C@@H](CC(=O)O)C(=O)N[C@@H](Cc1c[nH]c2ccccc12)C(=O)N[C@@H](Cc1c[nH]c2ccccc12)C(=O)N[C@@H](CCC(=O)O)C(=O)N[C@@H](Cc1c[nH]c2ccccc12)C(=O)N[C@H](C(=O)N[C@@H](CCCNC(=N)N)C(=O)N[C@@H](CCCNC(=N)N)C(N)=O)C(C)C)C(C)C [SEQ ID NO: 136] (Ac-VHFQFPQDWWEWVRR-NH2) | < 500 nM
CC[C@H](C)[C@H](NC(=O)[C@H](CCC(N)=O)NC(=O)[C@H](Cc1ccccc1)NC(=O)[C@H](Cc1c[nH]cn1)NC(=O)[C@@H](NC(C)=O)C(C)C)C(=O)N1CCC[C@H]1C(=O)N[C@@H](CCC(N)=O)C(=O)N[C@@H](CC(=O)O)C(=O)N[C@@H](Cc1c[nH]c2ccccc12)C(=O)N[C@@H](Cc1c[nH]c2ccccc12)C(=O)N[C@@H](CCC(=O)O)C(=O)N[C@@H](Cc1c[nH]c2ccccc12)C(=O)N[C@H](C(=O)N[C@@H](CCCNC(=N)N)C(=O)N[C@@H](CCCNC(=N)N)C(N)=O)C(C)C [SEQ ID NO: 137] (Ac-VHFQIPQDWWEWVRR-NH2) | < 500 nM
CC(=O)N[C@H](C(=O)N[C@@H](Cc1c[nH]cn1)C(=O)N[C@@H](Cc1ccccc1)C(=O)N[C@@H](CCC(N)=O)C(=O)N[C@@H](Cc1ccccc1)C(=O)N1CCC[C@H]1C(=O)N[C@@H](CCC(N)=O)C(=O)N[C@@H](CC(=O)O)C(=O)N[C@@H](Cc1c[nH]c2ccccc12)C(=O)N[C@@H](Cc1ccc(O)cc1)C(=O)N[C@@H](CCC(=O)O)C(=O)N[C@@H](Cc1c[nH]c2ccccc12)C(=O)N[C@H](C(=O)N[C@@H](CCCNC(=N)N)C(=O)N[C@@H](CCCNC(=N)N)C(N)=O)C(C)C)C(C)C [SEQ ID NO: 138] (Ac-VHFQFPQDWYEWVRR-NH2) | < 500 nM
CC(=O)N[C@H](C(=O)N[C@@H](Cc1c[nH]cn1)C(=O)N[C@@H](Cc1ccccc1)C(=O)N[C@@H](CCC(N)=O)C(=O)N[C@@H](Cc1ccccc1)C(=O)N1CCC[C@H]1C(=O)N[C@@H](CCC(N)=O)C(=O)N[C@@H](CC(=O)O)C(=O)N[C@@H](Cc1c[nH]c2ccccc12)C(=O)N[C@@H](Cc1c[nH]c2ccccc12)C(=O)N[C@@H](CC(N)=O)C(=O)N[C@@H](Cc1c[nH]c2ccccc12)C(=O)N[C@H](C(=O)N[C@@H](CCCNC(=N)N)C(=O)N[C@@H](CCCNC(=N)N)C(N)=O)C(C)C)C(C)C [SEQ ID NO: 139] (Ac-VHFQFPQDWWNWVRR-NH2) | < 500 nM
CC(=O)N[C@H](C(=O)N[C@@H](Cc1c[nH]cn1)C(=O)N[C@@H](Cc1ccccc1)C(=O)N[C@@H](CCC(N)=O)C(=O)N[C@@H](Cc1ccccc1)C(=O)N1CCC[C@H]1C(=O)N[C@@H](CCC(N)=O)C(=O)N[C@@H](CC(=O)O)C(=O)N[C@@H](CC(C)C)C(=O)N[C@@H](Cc1c[nH]c2ccccc12)C(=O)N[C@@H](CCC(=O)O)C(=O)N[C@@H](Cc1ccccc1)C(=O)N[C@H](C(=O)N[C@@H](CCCNC(=N)N)C(=O)N[C@@H](CCCNC(=N)N)C(N)=O)C(C)C)C(C)C [SEQ ID NO: 140] (Ac-VHFQFPQDLWEFVRR-NH2) | < 500 nM
CC(=O)N[C@H](C(=O)N[C@@H](Cc1c[nH]cn1)C(=O)N[C@@H](Cc1ccccc1)C(=O)N[C@@H](CCC(N)=O)C(=O)N[C@@H](Cc1ccccc1)C(=O)N1CCC[C@H]1C(=O)N[C@@H](CCC(N)=O)C(=O)N[C@@H](CC(=O)O)C(=O)N[C@@H](Cc1c[nH]c2ccccc12)C(=O)N[C@@H](Cc1c[nH]c2ccccc12)C(=O)N[C@@H](CCC(=O)O)C(=O)N[C@@H](Cc1c[nH]c2ccccc12)C(=O)N[C@@H](Cc1ccccc1)C(=O)N[C@@H](CCCNC(=N)N)C(=O)N[C@@H](CCCNC(=N)N)C(N)=O)C(C)C [SEQ ID NO: 141] (Ac-VHFQFPQDWWEWFRR-NH2) | < 500 nM
CC[C@H](C)[C@H](NC(=O)[C@@H](NC(=O)[C@H](Cc1ccccc1)NC(=O)[C@H](Cc1c[nH]cn1)NC(=O)[C@@H](NC(C)=O)C(C)C)[C@@H](C)O)C(=O)N1CCC[C@H]1C(=O)N[C@@H](C)C(=O)N[C@@H](CC(=O)O)C(=O)N[C@@H](Cc1ccccc1)C(=O)N[C@@H](Cc1c[nH]c2ccccc12)C(=O)N[C@@H](CCC(=O)O)C(=O)N[C@@H](Cc1c[nH]c2ccccc12)C(=O)N[C@@H](Cc1ccccc1)C(=O)N[C@@H](CCCNC(=N)N)C(=O)N[C@@H](CCCNC(=N)N)C(N)=O [SEQ ID NO: 142] (Ac-VHFTIPADFWEWFRR-NH2) | < 500 nM

— US11236129B2, “IL-17A binding peptides and medical uses thereof” (Dompe' Farmaceutici S.P.A., priority 2018, dated 2022)
